The data set in a line: physchem.

SMILES strings stand for the structures.

Excerpt: Log P is a measure of differential solubility of a compound in two solvents. The log ratio of the concentrations of the solute in the solvent is called Log P or the Partition Coefficient. The most well-known of these partition coefficients is based on the solvents Octanol and Water.

In the case of `CCCCC(CC)COC(=O)C(C#N)=C(c1ccccc1)c1ccccc1` (stereo not shown) [Octocrylene], the lipophilicity (logP) (in general, the decadic logarithm of the partition coefficient of the neutral form, usually between octanol and water) was around 6.9.

The values are drawn from patent US20080063613A1, “Syndet Bars Having Ultraviolet Radiation Protection” (priority 2004, published 2008).
